Structures can show the parent of a compound that is named as a salt.
| Structure (SMILES) | melting point |
| --- | --- |
| CSc1ccc(-c2cc3ncnc(Nc4ccc5[nH]ccc5c4)c3s2)cc1 [Example 9, (1H-Indol-5-yl)-[6-(4-methylsulfanyl-phenyl)-thieno[3,2-d]pyrimidin-4-yl]-amine] | 163 to 178 °C |
| CN(C)CCCNCc1ccc(-c2cc3ncnc(Nc4ccc5[nH]ccc5c4)c3s2)cc1 [Example 36, N-{4-[4-(1H-Indol-5-ylamino)-thieno[3,2-d]pyrimidin-6-yl]-benzyl}-N′,N′-dimethyl-propane-1,3-diamine] | 148 to 160 °C |
| COc1ccc(Nc2ccc(Nc3ncnc4cc(-c5ccccc5)sc34)cc2)cc1OC [Example 65, N-(3,4-Dimethoxy-phenyl)-N′-(6-phenyl-thieno[3,2-d]pyrimidin-4-yl)-benzene-1,4-diamine] | 160 to 161 °C |
| COCC1CCCN1Cc1ccc(-c2cc3ncnc(Nc4ccc5[nH]ccc5c4)c3s2)cc1 (centres unmarked) [Example 42, (1H-Indol-5-yl)-{6-[4-(2-methoxymethyl-pyrrolidin-1-ylmethyl)-phenyl]-thieno[3,2-d]pyrimidin-4-yl}-amine] | 161 to 177 °C |
| CCCNCc1ccc(-c2cc3ncnc(Nc4ccc5[nH]ccc5c4)c3s2)cc1 [Example 21, (1H-Indol-5-yl)-[6-(4-propylaminomethyl-phenyl)-thieno[3,2-d]pyrimidin-4-yl]-amine] | 190 to 205 °C |
| OCCOCCNCc1ccc(-c2cc3ncnc(Nc4ccc5[nH]ccc5c4)c3s2)cc1 (as salt: mesylate) [Example 30, 2-(2-(4-[4-(1H-Indol-5-ylamino)-thieno[3,2-d]pyrimidin-6-yl]-benzylamino}-ethoxy)-ethanol] | 111 to 119 °C |
| Clc1ccc(-c2cc3ncnc(Nc4ccc5[nH]ccc5c4)c3s2)cc1 [Example 3, [6-(4-Chloro-phenyl)-thieno[3,2-d]pyrimidin-4-yl]-(1H-indol-5-yl)-amine] | 190 to 210 °C |
| NC(=O)C1CCN(Cc2ccc(-c3cc4ncnc(Nc5ccc6[nH]ccc6c5)c4s3)cc2)CC1 [Example 44, 1-{4-[4-(1H-Indol-5-ylamino)-thieno[3,2-d]pyrimidin-6-yl]-benzyl}-piperidine-4-carboxylic acid amide] | 198 to 205 °C |
| c1coc(CNCc2ccc(-c3cc4ncnc(Nc5ccc6[nH]ccc6c5)c4s3)cc2)c1 [Example 34, [6-(4-{[(Furan-2-ylmethyl)-amino]-methyl}-phenyl)-thieno[3,2-d]pyrimidin-4-yl]-(1H-indol-5-yl)-amine] | 125 to 134 °C |
| c1nc(Nc2ccc3[nH]ccc3c2)c2sc(-c3ccc(CNC4CC4)cc3)cc2n1 [Example 40, [6-(4-Cyclopropylaminomethyl-phenyl)-thieno[3,2-d]pyrimidin-4-yl]-(1H-indol-5-yl)-amine] | 176 to 180 °C |
| OCCN(CCO)Cc1ccc(-c2cc3ncnc(Nc4ccc5[nH]ccc5c4)c3s2)cc1 (as salt: mesylate) [Example 29, 2-((2-Hydroxy-ethyl)-{4-[4-(1H-indol-5-ylamino)-thieno[3,2-d]pyrimidin-6-yl]-benzyl}-amino)-ethanol] | 110 to 127 °C |
| c1ccc(-c2cc3ncnc(Nc4ccc5[nH]ccc5c4)c3s2)cc1 [Example 2, (1H-indol-5-yl)-(6-phenyl-thieno[3,2-d]pyrimidin-4-yl)-amine] | 255 to 258 °C (dec.) |
| c1csc(CNCc2ccc(-c3cc4ncnc(Nc5ccc6[nH]ccc6c5)c4s3)cc2)c1 (as salt: mesylate) [Example 33, (1H-Indol-5-yl)-[6-(4-{[(thiophen-2-ylmethyl)-amino]-methyl}-phenyl)-thieno[3,2-d]pyrimidin-4-yl]-amine] | 111 to 121 °C |
| COc1ccc(Nc2ccc(Nc3ncnc4cc(-c5ccccc5)sc34)cc2)cc1 [Example 62, N-(4-Methoxy-phenyl)-N′-(6-phenyl-thieno[3,2-d]pyrimidin-4-yl)-benzene-1,4-diamine] | 210 to 211 °C |
| CN(C)CCNCc1ccc(-c2cc3ncnc(Nc4ccc5[nH]ccc5c4)c3s2)cc1 [Example 18, N-{4-[4-(1H-Indol-5-ylamino)-thieno[3,2-d]pyrimidin-6-yl]-benzyl}-N′,N′-dimethyl-ethane-1,2-diamine] | 170 to 183 °C |
| O=C1CCCN1CCCNCc1ccc(-c2cc3ncnc(Nc4ccc5[nH]ccc5c4)c3s2)cc1 [Example 35, 1-(3-{4-[4-(1H-Indol-5-ylamino)-thieno[3,2-d]pyrimidin-6-yl]-benzylamino}-propyl)-pyrrolidin-2-one] | 139 to 146 °C |

The remaining lines, values ahead:

| melting point | Structure (SMILES) |
| --- | --- |
| 231 to 240 °C | COc1ccc(Nc2ccc(Nc3ncnc4cc(-c5cccs5)sc34)cc2)cc1 [Example 81, N-(4-Methoxy-phenyl)-N′-(6-thiophen-2-yl-thieno[3,2-d]pyrimidin-4-yl)-benzene-1,4-diamine] |
| 205 to 210 °C | Cc1nc(Nc2ccc3[nH]ccc3c2)c2sc(-c3ccccc3)cc2n1 [Example 71, (1H-Indol-5-yl)-(2-methyl-6-phenyl-thieno[3,2-d]pyrimidin-4-yl)-amine] |
| 238 to 241 °C | Cc1cccc(Nc2ncnc3cc(-c4ccccc4)sc23)c1 (as salt: HCl) [Example 92, (6-Phenyl-thieno[3,2-d]pyrimidin-4-yl)-m-tolyl-amine] |
| 181 to 185 °C | COc1ccc(Nc2ccc(Nc3nc(C)nc4cc(-c5ccccc5)sc34)cc2)cc1 [Example 72, N-(4-Methoxy-phenyl)-N′-(2-methyl-6-phenyl-thieno[3,2-d]pyrimidin-4-yl)-benzene-1,4-diamine] |
| 221 to 223 °C | Cc1c[nH]c2ccc(Nc3ncnc4cc(-c5ccccc5)sc34)cc12 [Example 82, (3-Methyl-1H-indol-5-yl)-(6-phenyl-thieno[3,2-d]pyrimidin-4-yl)-amine] |
| 259 to 261 °C | c1ccc(-c2cc3ncnc(Nc4ccc(NCc5c[nH]c6ccccc56)cc4)c3s2)cc1 [Example 76, N-(1H-Indol-3-ylmethyl)-N′-(6-phenyl-thieno[3,2-d]pyrimidin-4-yl)-benzene-1,4-diamine] |
| 243 to 249 °C | COc1ccc(-c2cc3ncnc(Nc4ccc5[nH]ccc5c4)c3s2)cn1 [Example 86, (1H-Indol-5-yl)-[6-(6-methoxy-pyridin-3-yl)-thieno[3,2-d]pyrimidin-4-yl]-amine] |
